This passage reports Ki and Ratio Ki results from ChEMBL document CHEMBL5131451, “BOPPY-based novel fluorescent dopamine D2 and D3 receptor ligands” (Bioorg Med Chem Lett, 2022).

One assay addresses D(2) dopamine receptor (Homo sapiens, UniProt P14416). In words: Binding affinity to dopamine D2S receptor (unknown origin) by radioligand displacement assay. (Displacement assays read how much labelled ligand stays bound in the presence of the test substance.)
The next assay addresses D(3) dopamine receptor (Homo sapiens, UniProt P35462). The experiment in a line: Binding affinity to dopamine D3 receptor (unknown origin) by radioligand displacement assay.
Another assay is filed under the species Homo sapiens. The experiment in a line: Ratio of Ki for binding affinity to D2S (unknown origin) to Ki for binding affinity to D3R (unknown origin).

Chain of D(2) dopamine receptor (P14416 whole entry): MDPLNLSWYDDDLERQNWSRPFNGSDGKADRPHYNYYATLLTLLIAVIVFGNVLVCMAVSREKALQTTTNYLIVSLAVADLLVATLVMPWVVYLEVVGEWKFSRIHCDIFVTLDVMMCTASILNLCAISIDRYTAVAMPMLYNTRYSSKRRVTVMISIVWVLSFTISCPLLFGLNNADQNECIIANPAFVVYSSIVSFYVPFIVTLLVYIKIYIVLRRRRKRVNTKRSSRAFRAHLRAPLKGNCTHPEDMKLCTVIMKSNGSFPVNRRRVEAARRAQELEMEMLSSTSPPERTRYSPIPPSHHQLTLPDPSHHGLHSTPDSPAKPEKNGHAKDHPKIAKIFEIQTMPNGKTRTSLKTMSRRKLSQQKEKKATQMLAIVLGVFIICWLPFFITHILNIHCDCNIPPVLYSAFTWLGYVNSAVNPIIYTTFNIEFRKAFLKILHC
Chain of D(3) dopamine receptor (P35462 whole entry): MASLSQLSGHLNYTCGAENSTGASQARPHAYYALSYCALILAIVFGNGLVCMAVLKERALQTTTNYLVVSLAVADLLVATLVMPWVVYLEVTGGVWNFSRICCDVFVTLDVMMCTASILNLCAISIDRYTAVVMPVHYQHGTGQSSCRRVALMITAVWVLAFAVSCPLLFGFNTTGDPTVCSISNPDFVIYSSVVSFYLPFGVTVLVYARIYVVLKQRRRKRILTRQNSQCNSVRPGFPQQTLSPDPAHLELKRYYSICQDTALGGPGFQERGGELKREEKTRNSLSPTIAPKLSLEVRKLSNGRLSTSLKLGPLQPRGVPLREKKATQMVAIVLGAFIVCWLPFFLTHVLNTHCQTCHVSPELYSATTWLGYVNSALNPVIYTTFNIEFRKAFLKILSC

By Ki is commonly meant a dissociation constant, usually derived from enzyme kinetics or from competition with a known ligand. A low value points to higher affinity. Turning to `CCc1c(C)c2n(c1C)[B-](F)(F)[N+]1=C3C=CC=C(NCCCCN4CCN(c5ccccc5OC)CC4)N3[B-](F)(F)[N+]1=C2`, the inhibition constant Ki was determined as 309 nM on D(2) dopamine receptor and 34.3 nM at D(3) dopamine receptor. The Ratio Ki in the assay listed under Homo sapiens amounted to 9.5.

For `Cc1cc(C)n2c1C=[N+]1[N+](=C3C=CC=C(NCCCCN4CCN(c5cccc(Cl)c5Cl)CC4)N3[B-]1(F)F)[B-]2(F)F`, the inhibition constant (Ki) on D(2) dopamine receptor was 328 nM; at D(3) dopamine receptor it was 22.5 nM. In the assay filed under Homo sapiens, the Ratio Ki was 14.6.

Take `COc1ccccc1N1CCN(CCCCNC2=CC=CC3=[N+]4[N+](=Cc5c(C)cc(C)n5[B-]4(F)F)[B-](F)(F)N23)CC1`: the results for the Ki at D(2) dopamine receptor and on D(3) dopamine receptor were 81.1 nM and 27.2 nM, respectively. The Ratio Ki in the assay filed under Homo sapiens stood at 3.

For `CCc1c(C)c2n(c1C)[B-](F)(F)[N+]1=C3C=CC=C(NCCCCN4CCN(c5cccc(Cl)c5Cl)CC4)N3[B-](F)(F)[N+]1=C2`, the Ki is 497 nM at D(2) dopamine receptor and 52.1 nM at D(3) dopamine receptor. The Ratio Ki in the assay listed under Homo sapiens turned out to be 9.

As for `COc1ccccc1N1CCN(CCCCNC2=CC=CC3=[N+]4[N+](=Cc5cc6ccccc6n5[B-]4(F)F)[B-](F)(F)N23)CC1`, the figures for the Ki on D(2) dopamine receptor and on D(3) dopamine receptor were 182 nM and 16.7 nM, respectively. In the assay filed under Homo sapiens, the Ratio Ki was determined as 10.9.
